Data published in PubChem BioAssay AID588840 (Broad Institute, 2011).

Tested on: not listed separately
Assay: cytotoxicity in MDA231 breast tumor cells – cell-based, CellTiter-Glo luminescence, dry powder, set 2, dose response (AID 588840)
Conditions: MDA-MB-231 viability, CellTiter-Glo luminescence, 72 h; at 32 µM (top of the series)

**Q.** Which viability fraction (lower = toxic) does the source give for `Cc1ccc(/C=C/C(=O)NC2=NCCS2)cc1` here?
**A.** The viability fraction (lower = toxic) was 114%.

**Q.** With `O=C(/C=C/c1ccc(-c2ccccc2)cc1)NC1=NCCS1` as the compound, how does the viability fraction (lower = toxic) read?
**A.** Its viability fraction (lower = toxic) is 76.4%.

**Q.** With `O=C(NC1CCCC1)c1ccc(COc2ccccc2)o1` as the compound, how does the viability fraction (lower = toxic) read?
**A.** The viability fraction (lower = toxic) was 101%.

**Q.** For `Cc1csc(NC(=O)c2ccc(COc3ccccc3)o2)n1`, which viability fraction (lower = toxic) is on record?
**A.** The viability fraction (lower = toxic) was 72.4%.

**Q.** Which viability fraction (lower = toxic) does the source give for `CC(C)c1ccc(/C=C/C(=O)NC2=NCCS2)cc1` here?
**A.** Its viability fraction (lower = toxic) is 34.6%.

**Q.** With `COc1ccc(/C=C/C(=O)NC2=NCCS2)c(OC)c1` as the compound, how does the viability fraction (lower = toxic) read?
**A.** The viability fraction (lower = toxic) was 118%.

Tested on: MDA-MB-231 viability, CellTiter-Glo luminescence, 72 h
Assay: as above
Conditions: not given

**Q.** Which AC50 does the source give for `Cc1csc(NC(=O)c2ccc(COc3cccc(F)c3)o2)n1` here?
**A.** The AC50 was 480 nM.
